PubChem BioAssay AID1996
Converted amounts (≈) assume the structure as drawn.

Conditions: buffer; pH 7.4; 200.0 µM

| Compound | solubility kinetic |
| --- | --- |
| Cn1cc(C(=O)OCC(=O)NC2CCCC2)c2ccccc21 | 7.2 µg/mL (≈ 24 µM) |
| COc1ccc(-c2c(C(F)(F)F)nn(C)c2NC(=O)c2ccco2)cc1 | > 54.8 µg/mL |
| Cc1cc(C)cc(NC(=O)c2cccc(NC(=O)c3ccco3)c2)c1 | 1 µg/mL (≈ 2.99 µM) |
| O=C(NCc1ccc(F)cc1)C(Cc1ccccc1)n1cccc1 (centres undefined) | 32.2 µg/mL (≈ 99.9 µM) |
| CC(C)NC(=O)COc1nncc2ccccc12 | > 36.8 µg/mL |
| COc1ccc(NCC(=O)N/N=C/C(C)c2ccccc2)cc1 (centres undefined) | > 46.7 µg/mL |
| N/C(=N/OC(=O)c1ccc(Cl)cc1)c1ncc([N+](=O)[O-])s1 | 0.2 µg/mL (≈ 0.612 µM) |
| Cn1c(N)c(N2CCCCC2)c(=O)n(CC(=O)Nc2cccc(C#N)c2)c1=O | > 57.4 µg/mL |
| Cc1ccc(NC(=O)CN(C)C(=O)COC(=O)[C@@H](NC(=O)c2ccccc2F)C(C)C)cc1 | > 68.6 µg/mL |
| O=C(O)CCSc1ncnc2sc(-c3ccccc3)cc12 | > 47.5 µg/mL |
| Nc1ncc([N+](=O)[O-])cc1S(=O)(=O)c1ccccc1 | 3.8 µg/mL (≈ 13.6 µM) |
| CC(=O)N/C(=C\c1ccccc1)C(=O)OCC(=O)N(C)C1CCS(=O)(=O)C1 (centres undefined) | > 59.2 µg/mL |
| O=C(NC1CCCCC1)C1CC(=O)N(c2cccc([N+](=O)[O-])c2)C1 (centres undefined) | 7.8 µg/mL (≈ 23.5 µM) |
| Cc1ccc2nc(-c3ccncc3)cc(C(=O)Nc3ccncc3)c2c1 | 3.5 µg/mL (≈ 10.3 µM) |
| Cc1ccc(OCC(=O)NCCCNC(=O)c2ccncc2)cc1 | > 49.1 µg/mL |
| CCOC(=O)/C(=C/c1cn(C)c2ccccc12)NC(=O)c1ccccc1 | 3.2 µg/mL (≈ 9.18 µM) |
| O=C(O)CNc1ccc(S(=O)(=O)C(F)(F)F)cc1[N+](=O)[O-] | 44.7 µg/mL (≈ 136 µM) |
| CC(=O)O.O=S(=O)(CCc1ccncc1)C1Cc2cccc3cccc1c23 (centres undefined) | 49.4 µg/mL |
| O=C(NC(=S)Nc1ccccc1Cl)c1cncc(Br)c1 | 1.2 µg/mL (≈ 3.24 µM) |
| CCOc1ccc2nc(SCC(=O)NCc3ccccc3)[nH]c2c1 | 44.3 µg/mL (≈ 130 µM) |

| Compound | solubility kinetic |
| --- | --- |
| CCOc1ccccc1NC(=O)Cn1c(=O)sc2ccccc21 | 1.2 µg/mL (≈ 3.65 µM) |
| COC(=O)Cc1c(O)ccn(Cc2ccc(Cl)c(Cl)c2)c1=O | > 51.3 µg/mL |
| CC1=C(C)CC(C(=O)Nc2nccs2)C(C(=O)O)C1 (centres undefined) | 40.6 µg/mL (≈ 145 µM) |
| CC(C)(C)NC(=O)CN(Cc1ccccc1)S(=O)(=O)c1ccccc1 | 38.7 µg/mL (≈ 107 µM) |
| Cc1ccccc1NC(=S)c1ccc2ccccc2n1 | < 0.3 µg/mL |
| CCC(C)n1c(O)c(C=NCCc2ccccc2)c(=O)[nH]c1=S (centres undefined) | 5.1 µg/mL (≈ 15.4 µM) |
| CCc1nc(SCC(=O)O)c2c3c(sc2n1)COC(C)(C)C3 | > 50.8 µg/mL |
| O=c1[nH]c2ccc(NC(=S)NCc3ccccc3)cc2[nH]1 | 7.6 µg/mL (≈ 25.5 µM) |
| CCOc1ccc2nc(SCC(=O)NCC3CCCO3)sc2c1 (centres undefined) | > 52.9 µg/mL |
| CCC(C(=O)Nc1cccnc1)c1ccccc1 (centres undefined) | 34.3 µg/mL (≈ 143 µM) |
| O=C(CCC(=O)c1ccc(Cl)cc1)NCc1ccccc1 | 14.3 µg/mL (≈ 47.4 µM) |
| CCNc1nc(OC)nc(SCC(=O)Nc2ccccc2)n1 | > 47.9 µg/mL |
| O=C(NCCNC(=O)c1ccccc1F)c1ccccn1 | > 43.1 µg/mL |
| CN(CC(=O)Nc1ccc2c(c1)OCCO2)CC(=O)Nc1ccc(F)c(F)c1F | > 61.4 µg/mL |
| COC(=O)Nc1nc(-c2ccc(F)cc2)c(C)s1 | 2.2 µg/mL (≈ 8.26 µM) |
| O=C(COC(=O)CCC(=O)c1cccs1)NC1CC1 | > 42.2 µg/mL |
| O=C(NCCCn1ccnc1)c1ccc(-c2ccccc2)cc1 | > 45.8 µg/mL |
| CC(=O)c1c(-c2ccc(C)cc2)nc2c3ccccc3ccn12 | < 0.3 µg/mL |
| COc1cccc(CNC(=O)CCCc2cn(C)c3ccccc23)c1 | 6.1 µg/mL (≈ 18.1 µM) |
| Cc1ccc(NC(=O)c2cnccn2)c(Br)c1 | 4.2 µg/mL (≈ 14.4 µM) |

| Compound | solubility kinetic |
| --- | --- |
| COc1ccc(NC(=O)C2C3C=CC(O3)C2C(=O)O)cc1 (centres undefined) | > 43.4 µg/mL |
| CCc1noc(C)c1C(=O)OCC(=O)N1CCc2ccccc21 | 4.6 µg/mL (≈ 14.6 µM) |
| CC1=CC(C)(C)N=C(Nc2nc(C)c3cc(C)cc(C)c3n2)N1 | > 46.4 µg/mL |
| CCOC(=O)c1cc(C(=O)NC(C)c2ccccc2)c(=O)[nH]c1C (centres undefined) | 1.6 µg/mL (≈ 4.87 µM) |
| CC(C)NC[C@H](O)COc1cccc2ccccc12.Cl | > 44.4 µg/mL |
| COc1cccc(C(=O)Nc2ccc3ccccc3c2)c1 | 1.6 µg/mL (≈ 5.77 µM) |
| COc1ccc(S(=O)(=O)N2CCOCC2)cc1NC(=O)CSc1nc(C)c(C)c(C)n1 | 8.5 µg/mL (≈ 18.2 µM) |
| O=C(c1ccc(Cl)c(S(=O)(=O)N2CCOCC2)c1)N1CCCCCC1 | 52.2 µg/mL (≈ 135 µM) |
| CCN(CC)C(=O)C1CCCN(Cc2nc(-c3cnccn3)no2)C1 (centres undefined) | 40.4 µg/mL (≈ 117 µM) |
| O=C(OCC(=O)c1c[nH]c2ccccc12)c1cncc(Br)c1 | 7.5 µg/mL (≈ 20.9 µM) |
| Cc1c(Cl)ccc(S(=O)(=O)NCCN2CCOCC2)c1Cl | > 53 µg/mL |
| Cc1cc(Cc2c(O)[nH]c(=S)[nH]c2=O)ccc1OC(C)C | 34.8 µg/mL (≈ 114 µM) |
| COc1ccc2c(c1)CCc1c-2nc2ccccc2c1N1CCOCC1 | 5.5 µg/mL (≈ 15.9 µM) |
| CNc1nc(-c2ccccc2)cc(C)c1S(C)(=O)=O | 22.8 µg/mL (≈ 82.5 µM) |
| Cc1cnc(C(=O)OCC(=O)Nc2ccc(C)c(S(=O)(=O)N3CCOCC3)c2)cn1 | > 65.2 µg/mL |
| Nc1ccccc1SCC(=O)Nc1cccc2ccccc12 | 32.6 µg/mL (≈ 106 µM) |
| Cc1cnc(C(=O)OCC(=O)c2ccc(Cl)cc2)cn1 | > 43.6 µg/mL |
| O=C1CC(/C=C/c2ccccc2)=Nc2ccccc2N1 | 2.1 µg/mL (≈ 8.01 µM) |
| Cc1ccccc1NC(=S)N1CCN(c2ccccc2Cl)CC1 | 17.5 µg/mL (≈ 50.6 µM) |
